# How the values were obtained:
# [1] = Fluorescence characterization of fluorescent molecules (excitation and emission wavelengths); assay type: physicochemical; settings: fluorescent molecule, Table 1
# Excerpt: 1-Naphthylethylenediamine of Chemical Formula I can be effectively detected by LED (light-emitting diode), and used as a fluorescent probe. In addition, because this compound has an excitation wavelength of 340 nm to 380 nm and an emission wavelength of 400 nm to 600 nm, it has longer emission wavelength than the known fluorophores, and therefore, it can be detected as a fluorescent molecule distinct from the cellular autofluorescence.
# The excitation and emission wavelengths of the fluorescent molecules of the present invention, that is, the compounds represented by Chemical Formulae I to XXII are described in Table 1, and graphs showing the fluorescent characteristics thereof are given in FIGS. 3 to 15.
# [2] = Fluorescence of the iFRET probe alone; assay type: physicochemical; settings: for fluorescence emission wavelength of probe alone: excitation / UV irradiation at 280 nm
# Excerpt: After excitation at 260, 280, 340, and 360 nm, the emitted fluorescence spectra were examined. […]
# (§1) As in FIG. 23 showing the result of using the compound of Chemical Formula XXV as a probe for iFRET, the probe itself emitted low fluorescence (blue line) at 430 nm by UV irradiation at 280 nm; the protein (streptavidin) emitted fluorescence (green line) at 340 nm by UV irradiation at 280 nm.
# As in FIG. 24 showing the result of using the compound of Chemical Formula XXVI as a fluorescent probe, the probe itself emitted low fluorescence (blue line) at 460 nm by UV irradiation at 280 nm; the protein (streptavidin) emitted fluorescence (green line) at 340 nm by UV irradiation at 280. […] Further, it was confirmed that the fluorescence increasing rate at the above emission wavelength was 600% or more, indicating production of effective iFRET signals. […]
# [3] = value used for calculation; cited from earlier work
# [4] = biological target: T1, streptavidin (Streptomyces avidinii, UniProt P22629); assay: iFRET detection of streptavidin with biotin-conjugated probes; assay type: binding; settings: UV irradiation at 280 nm
# Excerpt: The results of detecting streptavidin using Compounds of Chemical Formulae XXV to XXVIII as probes for iFRET are shown in FIGS. 23 to 26.
# as §1
# As in FIG. 24 showing the result of using the compound of Chemical Formula XXVI as a fluorescent probe, the probe itself emitted low fluorescence (blue line) at 460 nm by UV irradiation at 280 nm; the protein (streptavidin) emitted fluorescence (green line) at 340 nm by UV irradiation at 280. […] Further, it was confirmed that the fluorescence increasing rate at the above emission wavelength was 600% or more, indicating production of effective iFRET signals.
# Because the compound of Chemical Formula XXVII emitted fluorescence at the longer wavelength than the known iFRET probe, signal-to-noise ratio is […] during real-time cell imaging, thereby providing more clear images.
# In order to examine target specificity of the probe having Chemical Formula XXVIII, the probe was exposed to BSA to examine whether iFRET signals were produced by binding of the probe to BSA. […] Therefore, it was confirmed that the biotin-conjugated iFRET fluorescent probe of the present invention selectively binds to streptavidin to produce iFRET signals.
# [5] = Quantum yield measurement; assay type: physicochemical; settings: 0.1 M pH 10.0 phosphate buffer, standard 4-methyl-umbelliferone
# Protocol: (§2) The quantum yield of each compound was measured in 0.1 M pH 10.0 phosphate buffer. 4-methyl-umbelliferone (ΦF 0.63) was used as a standard material, tryptophan (ΦF=0.12) was used as an FRET donor to calculate the quantum yield. FRET efficiency was calculated based on the results measured in PBS buffer at pH 7.4, and fluorescence was measured using an LS55 fluorescence spectrometer manufactured by Perkin Elmer.
# [6] = biological target: T1, streptavidin; assay: FRET efficiency and Forster distance of biotin-conjugated probes; assay type: binding; settings: between iFRET probe and streptavidin
# Protocol: as §2
# [7] = biological target: T2, active caspase (Homo sapiens, UniProt P42574); assay: iFRET detection of caspase-3 with probe XXIII; assay type: binding; settings: mixture of probe and active caspase, excitation at 280 nm, versus caspase or probe alone
# T2 sequence (P42574 29-175 limits assumed): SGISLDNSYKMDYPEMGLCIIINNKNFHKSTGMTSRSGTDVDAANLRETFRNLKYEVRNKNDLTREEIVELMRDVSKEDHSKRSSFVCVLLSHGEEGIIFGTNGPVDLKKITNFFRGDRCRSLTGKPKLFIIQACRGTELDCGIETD
# T2 sequence (P42574 176-277 limits assumed): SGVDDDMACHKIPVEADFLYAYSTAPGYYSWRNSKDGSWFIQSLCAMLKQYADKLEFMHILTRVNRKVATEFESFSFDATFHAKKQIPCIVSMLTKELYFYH
# Excerpt: <Detection of Caspase-3 Protein and Test of its Activity Using iFRET Probe of Chemical Formula XXIII>
# Chemical Formula XXIII and caspase protein were used to detect iFRET signals.
# [8] = system: inactive caspase; assay: iFRET control with inactive caspase; assay type: binding; settings: inactive caspase and probe excited at 280 nm
Compound,Emission wavelength (nm) [1],Excitation wavelength (nm) [1],also measured
"COC(=O)C1=CN(C)C=CC1(C)C [Chemical Formula II, methyl 1,4,4-trimethyl-1,4-dihydropyridine-3-carboxylate]",450 nm,360 nm,
"COC(=O)CC1C(C(=O)OC)=CN(C)C=C1C(=O)OC [Chemical Formula VIII, dimethyl 4-(2-methoxy-2-oxoethyl)-1-methyl-1,4-dihydropyridine-3,5-dicarboxylate]",450 nm,370 nm,
"COC(=O)CCC(NC(=O)C(CC(=O)OC)NC(=O)CCC(=O)NCCNc1cccc2ccccc12)C(=O)N[C@@H](C(=O)NC(CC(=O)OC)C(=O)C(F)(F)F)C(C)C (stereo partly drawn) [Chemical Formula XXXII, N-(1-naphthyl)ethyleneamide-4-butaneamide-Asp(CO2Me)-L-Glu(CO2Me)-L-Val-Asp(CO2Me)-(ketone)-CF3]",,,fluorescence emission wavelength of probe [2]: 430 nm
"COC(=O)C1=C(C)N(Cc2ccccc2)C=CC1(C)C [Chemical Formula V, methyl 1-benzyl-2,4,4-trimethyl-1,4-dihydropyridine-3-carboxylate]",430 nm,330 nm,
N[C@@H](Cc1c[nH]c2ccccc12)C(=O)O [tryptophan],,,quantum yield ΦF of standard material / FRET donor [3]: 0.12
Cc1cc(=O)oc2cc(O)ccc12 [4-methyl-umbelliferone],,,quantum yield ΦF of standard material / FRET donor [3]: 0.63
"NCCNc1cccc2ccccc12 [Chemical Formula I, 1-naphthylethylenediamine]",430 nm,340 nm,
"O=C(/C=C/c1cc2ccc(O)cc2oc1=O)NCCNC(=O)CCCC[C@@H]1SC[C@@H]2NC(=O)N[C@@H]21 [Chemical Formula XXVII, N-((E)-7-hydroxycoumarin-3-acryl)-N′-(biotinyl)ethylenediamide]",,,fluorescence / iFRET signal of mixture of probe and streptavidin [4]: increased fluorescence at 480 nm; Quantum yield (ΦF) [5]: 0.105; R0 (Fōrster distance) [6]: 2.161 nm
"O=C(CCCC[C@@H]1SC[C@@H]2NC(=O)N[C@@H]21)NCCNc1cccc2ccccc12 [Chemical Formula XXV, N-biotinyl N′-(1-naphthyl)ethylenediamine]",,,fluorescence / iFRET signal of mixture of probe and streptavidin [4]: increased fluorescence at 430 nm; Quantum yield (ΦF) [5]: 0.7; R0 (Fōrster distance) [6]: 1.837 nm; fluorescence emission wavelength of probe alone [2]: 430 nm
CC(C)[C@H](NC(=O)[C@H](CCC(=O)O)NC(=O)[C@H](CC(=O)O)NC(=O)CCC(=O)NCCNc1cccc2ccccc12)C(=O)N[C@H](C=O)CC(=O)O [Chemical Formula XXIII],,,increase of fluorescence at 445 nm [7]: approximately 300%; iFRET signals [8]: no iFRET signals were observed; fluorescence emission wavelength of probe alone [2]: approximately 445 nm
"COC(=O)C1=CN(C)C=C(C(=O)OC)C1C=C(C)C [Chemical Formula VI, dimethyl 1-methyl-4-(2-methyl-1-propenyl)-1,4-dihydropyridine-3,5-dicarboxylate]",450 nm,390 nm,
CN(C)c1cccc2c(S(=O)(=O)Cl)cccc12 [Chemical Formula XIX],520 nm,340 nm,
"O=C(CCCCC1SCC2NC(=O)NC21)NCCNC(=O)Cc1cc(=O)oc2cc(O)ccc12 (centres unmarked) [Chemical Formula XXVI, N-(7-hydroxycoumarin-4-acetyl)-N′-(biotinyl)ethylenediamine]",,,fluorescence / iFRET signal of mixture of probe and streptavidin [4]: increased fluorescence at 460 nm; fluorescence increasing rate at emission wavelength 460 nm ([4]; mixture of probe and streptavidin): ≥ 600%; Quantum yield (ΦF) [5]: 0.7; R0 (Fōrster distance) [6]: 1.675 nm; fluorescence emission wavelength of probe alone [2]: 460 nm

# Now from value to compound, other results behind:
Emission wavelength (nm) [1],Excitation wavelength (nm) [1],Compound,also measured
480 nm,370-380 nm,"O=C(O)/C=C/c1cc2ccc(O)cc2oc1=O [Chemical Formula IX, 3-(7-hydroxy-2-oxo-2H-chromen-3-yl)acrylic acid]",
470 nm,400 nm,CCN(CC)c1ccc2cc(C(=O)n3ccnc3)c(=O)oc2c1 [Chemical Formula XVIII],
480 nm,370 nm,"CN(C)c1ccc2c(CC(=O)O)cc(=O)oc2c1 [Chemical Formula XXI, 2-(7-(dimethylamino)-2-oxo-2H-chromen-4-yl)acetic acid]",
480 nm,390-400 nm,"COC(=O)C1=CN(C)C=C(C(=O)O)C1 [Chemical Formula IV, 5-(methoxycarbonyl)-1-methyl-1,4-dihydropyridine-3-carboxylic acid]",
450 nm,380 nm,"COC(=O)C1=CN(C)C=C(C(=O)O)C1C=C(C)C (centres unmarked) [Chemical Formula VII, 5-(methoxycarbonyl)-1-methyl-4-(2-methyl-1-propenyl)-1,4-dihydropyridine-3-carboxylic acid]",
450 nm,400 nm,Cc1ccc2cc(C(=O)O)c(=O)oc2c1 [Chemical Formula XIII],
480 nm,380-420 nm,"CC(C)(C)OC(=O)NCCNC(=O)/C=C/c1cc2ccc(O)cc2oc1=O [Chemical Formula XI, tert-butyl 2-(3-(7-hydroxy-2-oxo-2H-chromen-3-yl)acrylamido)ethylcarbamate]",
510 nm,430 nm,"COC(=O)/C=C/c1cc2ccc(O)cc2oc1=O [Chemical Formula X, methyl 3-(7-hydroxy-2-oxo-2H-chromen-3-yl)acrylate]",
450 nm,330 nm,CC(C)(C)OC(=O)Nc1ccc2cc(/C=C/C(=O)O)ccc2c1 [Chemical Formula XV],
450 nm,370 nm,"CCOC(=O)Cc1cc(=O)oc2cc(N(CC)CC)ccc12 [Chemical Formula XXII, ethyl 2-(7-(diethylamino)-2-oxo-2H-chromen-4-yl)acetate]",
390 nm,330 nm,COc1ccc2cc(C(=O)O)c(=O)oc2c1 [Chemical Formula XVI],
490 nm,370 nm,"CCOC(=O)Cc1cc(=O)oc2cc(N(C)C)ccc12 [Chemical Formula XX, ethyl 2-(7-(dimethylamino)-2-oxo-2H-chromen-4-yl)acetate]",
450 nm,370 nm,Cc1cc(=O)oc2cc(O)ccc12 [Chemical Formula XIV],
